# Source: patent US20110308790A1, “IN SITU METHANOGENESIS MODELING AND RISK ANALYSIS” (CONOCOPHILLIPS COMPANY, priority 2010, published 2011)
# Test system: microbes in production water
# Assay: biomass control with NaOCl solution (viable count CFU/mL)
# Assay type: cell-based
# Conditions: 0.03-0.6% NaOCl, 23 hours, presence or absence of oxygen
# Procedure: The procedures to test the effectiveness, and the minimum dose, of NaOCl that is required to eliminate biomass in the injection line and injection well-bore during the field biogasification process are the following. The initial population of microbes in production water, placed in tubes that were to be incubated under defined oxygen saturation conditions was determined either by direct counting of cells using a Petroff Hausser bacterial counting chamber, or by counting the colony forming units (CFU/mL) of microorganisms that developed on specialized media after incubation for specific period. The population of microbes that were present in the incubated tubes (also with added carbon source-coal and nutrient additions) was determined over time after methane was detected in the headspace of the tubes. Thereafter, the same tubes were amended with different concentrations (0.6%, 0.3%, 0.15%, 0.1%, 0.075%, 0.06%, 0.03% and 0%) of NaOCl solution followed by incubation of the tubes for 23 hours to allow the biomolecule-oxidizing action of the solution to come to appreciable completion. Immediately after this, the population of viable microbes (i.e. CFU/mL) in the NaOCl-amended tubes was determined by plating a specific volume of the culture on defined solid medium.
smiles,measurement,value
"OCl [NaOCl, sodium hypochlorite]",inactivation of microorganisms (viable CFU/mL),effective in inactiving microorganisms
